Measurements published in US11472791B2 (Incyte Corporation, priority 2019, dated 2022).

These molecules were tested against CDK2/Cyclin E1 (Homo sapiens (Human), UniProt P24941) (assay: CDK2/Cyclin E1 HTRF enzyme activity assay). Conditions: 1 mM ATP.
Type: biochemical
Experimental: Assays are conducted in white 384-well polystyrene plates in a final reaction volume of 8 μL. […] HTRF signals are read after 1 hour at room temperature on a PHERAstar FS plate reader (BMG Labtech). Data is analyzed with IDBS XLFit and GraphPad Prism 5.0 software using a three or four parameter dose response curve to determine IC50 for each compound.

IC50 [nM]	Compound
< 50	CCn1cc(CNCc2ccc(-n3cc(-c4nc(NC5CCN(S(C)(=O)=O)CC5)ncc4C#N)cn3)c(Cl)c2)cn1 [Example 194, 4-(1-(2-Chloro-4-((((1-ethyl-1H-pyrazol-4-yl)methyl)amino)methyl)phenyl)-1H-pyrazol-4-yl)-2-((1-(methylsulfonyl)piperidin-4-yl)amino)pyrimidine-5-carbonitrile]
< 50	CS(=O)(=O)N1CCC(Nc2ncc(C#N)c(-c3cnn(-c4ccc(CN[C@@H]5CCCOC5)cc4Cl)c3)n2)CC1 [Example 195, (R)-4-(1-(2-Chloro-4-(((tetrahydro-2H-pyran-3-yl)amino)methyl)phenyl)-1H-pyrazol-4-yl)-2-((1-(methylsulfonyl)piperidin-4-yl)amino)pyrimidine-5-carbonitrile]
< 50	CS(=O)(=O)N1CCC(Nc2ncc(C#N)c(-c3cnn(-c4ccc(CN[C@H]5CCCOC5)cc4Cl)c3)n2)CC1 [Example 196, (S)-4-(1-(2-Chloro-4-(((tetrahydro-2H-pyran-3-yl)amino)methyl)phenyl)-1H-pyrazol-4-yl)-2-((1-(methylsulfonyl)piperidin-4-yl)amino)pyrimidine-5-carbonitrile]
< 50	CCOC(=O)N1CCC(NCc2ccc(-n3cc(-c4nc(NC5CCN(S(C)(=O)=O)CC5)ncc4C#N)cn3)c(Cl)c2)CC1 [Example 197, Ethyl 4-((3-chloro-4-(4-(5-cyano-2-((1-(methylsulfonyl)piperidin-4-yl)amino)pyrimidin-4-yl)-1H-pyrazol-1-yl)benzyl)amino)piperidine-1-carboxylate]
< 50	CS(=O)(=O)N1CCC(Nc2ncc(C#N)c(-c3cnn(-c4ccc(CNCCOC(F)(F)F)cc4Cl)c3)n2)CC1 [Example 199, 4-(1-(2-Chloro-4-(((2-(trifluoromethoxy)ethyl)amino)methyl)phenyl)-1H-pyrazol-4-yl)-2-((1-(methylsulfonyl)piperidin-4-yl)amino)pyrimidine-5-carbonitrile]
< 50	CS(=O)(=O)CCNCc1ccc(-n2cc(-c3nc(NC4CCN(S(C)(=O)=O)CC4)ncc3C#N)cn2)c(Cl)c1 [Example 200, 4-(1-(2-Chloro-4-(((2-(methylsulfonyl)ethyl)amino)methyl)phenyl)-1H-pyrazol-4-yl)-2-((1-(methylsulfonyl)piperidin-4-yl)amino)pyrimidine-5-carbonitrile]
< 50	CC(C)(O)Cn1cc(-c2nc(N[C@H]3CCN(S(=O)(=O)CCCN4CCOCC4)C[C@H]3F)ncc2C(F)(F)F)cn1 [Example 201, 1-(4-(2-(((3R,4S)-3-Fluoro-1-((3-morpholinopropyl)sulfonyl)piperidin-4-yl)amino)-5-(trifluoromethyl)pyrimidin-4-yl)-1H-pyrazol-1-yl)-2-methylpropan-2-ol]
< 50	CCN(CC)CCCS(=O)(=O)N1CC[C@H](Nc2ncc(C(F)(F)F)c(-c3cnn(CC(C)(C)O)c3)n2)[C@H](F)C1 [Example 202, 1-(4-(2-(((3R,4S)-1-((3-(Diethylamino)propyl)sulfonyl)-3-fluoropiperidin-4-yl)amino)-5-(trifluoromethyl)pyrimidin-4-yl)-1H-pyrazol-1-yl)-2-methylpropan-2-ol]

Further lines, the molecule ahead of its results:

Compound	IC50 [nM]
CN(C)C1CCCCC1NCc1ccc(-n2cc(-c3nc(NC4CCN(S(C)(=O)=O)CC4)ncc3C#N)cn2)c(Cl)c1 (stereo not drawn) [Example 184, 4-(1-(2-Chloro-4-(((2-(dimethylamino)cyclohexyl)amino)methyl)phenyl)-1H-pyrazol-4-yl)-2-((1-(methylsulfonyl)piperidin-4-yl)amino)pyrimidine-5-carbonitrile]	< 50
CS(=O)(=O)N1CCC(Nc2ncc(C#N)c(-c3cnn(-c4ccc(CN[C@H]5CC[C@@H](S(C)(=O)=O)CC5)cc4Cl)c3)n2)CC1 [Example 185, 4-(1-(2-Chloro-4-((((cis)-4-(methylsulfonyl)cyclohexyl)amino)methyl)phenyl)-1H-pyrazol-4-yl)-2-((1-(methylsulfonyl)piperidin-4-yl)amino)pyrimidine-5-carbonitrile]	< 50
CS(=O)(=O)N1CCC(Nc2ncc(C#N)c(-c3cnn(-c4ccc(CN[C@@H]5CCC[C@H]5O)cc4Cl)c3)n2)CC1 [Example 186, 4-(1-(2-Chloro-4-((((1R,2R)-2-hydroxycyclopentyl)amino)methyl)phenyl)-1H-pyrazol-4-yl)-2-((1-(methylsulfonyl)piperidin-4-yl)amino)pyrimidine-5-carbonitrile]	< 50
CS(=O)(=O)N1CCC(Nc2ncc(C#N)c(-c3cnn(-c4ccc(CN[C@H]5CCC[C@@H]5O)cc4Cl)c3)n2)CC1 [Example 187, 4-(1-(2-Chloro-4-((((1S,2S)-2-hydroxycyclopentyl)amino)methyl)phenyl)-1H-pyrazol-4-yl)-2-((1-(methylsulfonyl)piperidin-4-yl)amino)pyrimidine-5-carbonitrile]	< 50
CS(=O)(=O)N1CCC(Nc2ncc(C#N)c(-c3cnn(-c4ccc(CN[C@H]5CC[C@@H](O)C5)cc4Cl)c3)n2)CC1 [Example 188, 4-(1-(2-Chloro-4-((((1S,3R)-3-hydroxycyclopentyl)amino)methyl)phenyl)-1H-pyrazol-4-yl)-2-((1-(methylsulfonyl)piperidin-4-yl)amino)pyrimidine-5-carbonitrile]	< 50
CS(=O)(=O)N1CCC(Nc2ncc(C#N)c(-c3cnn(-c4ccc(CN[C@@H]5CC[C@@H](O)C5)cc4Cl)c3)n2)CC1 [Example 189, 4-(1-(2-Chloro-4-((((1R,3R)-3-hydroxycyclopentyl)amino)methyl)phenyl)-1H-pyrazol-4-yl)-2-((1-(methylsulfonyl)piperidin-4-yl)amino)pyrimidine-5-carbonitrile]	< 50
CS(=O)(=O)N1CCC(Nc2ncc(C#N)c(-c3cnn(-c4ccc(CN[C@H]5C[C@@](C)(O)C5)cc4Cl)c3)n2)CC1 [Example 190, 4-(1-(2-Chloro-4-((((1s,3s)-3-hydroxy-3-methylcyclobutyl)amino)methyl)phenyl)-1H-pyrazol-4-yl)-2-((1-(methylsulfonyl)piperidin-4-yl)amino)pyrimidine-5-carbonitrile]	< 50
CS(=O)(=O)N1CCC(Nc2ncc(C#N)c(-c3cnn(-c4ccc(CN[C@H]5C[C@](C)(O)C5)cc4Cl)c3)n2)CC1 [Example 191, 4-(1-(2-Chloro-4-((((1r,3r)-3-hydroxy-3-methylcyclobutyl)amino)methyl)phenyl)-1H-pyrazol-4-yl)-2-((1-(methylsulfonyl)piperidin-4-yl)amino)pyrimidine-5-carbonitrile]	< 50
CCS(=O)(=O)N1CCC(Nc2ncc(C#N)c(-c3cnn(-c4ccc(CN[C@H]5C[C@@](C)(O)C5)cc4Cl)c3)n2)CC1 [Example 192, 4-(1-(2-Chloro-4-((((1s,3s)-3-hydroxy-3-methylcyclobutyl)amino)methyl)phenyl)-1H-pyrazol-4-yl)-2-((1-(ethylsulfonyl)piperidin-4-yl)amino)pyrimidine-5-carbonitrile]	< 50
CCS(=O)(=O)N1CCC(Nc2ncc(C#N)c(-c3cnn(-c4ccc(CN[C@H]5C[C@](C)(O)C5)cc4Cl)c3)n2)CC1 [Example 193, 4-(1-(2-Chloro-4-((((1r,3r)-3-hydroxy-3-methylcyclobutyl)amino)methyl)phenyl)-1H-pyrazol-4-yl)-2-((1-(ethylsulfonyl)piperidin-4-yl)amino)pyrimidine-5-carbonitrile]	< 50
